Laboratory results: the NIST ThermoML archive (doi:10.1021/je020185k)

Experiments:
[1] = Liquid; for mass density: 298.15 K, 101.33 kPa
[2] = xn = mol fraction of the nth substance listed; conditions: 298.15 K, 101.3 kPa, Liquid

C1COCCO1 [1,4-dioxane]
[1]
Conditions	Normal boiling temperature [°C]	mass density [kg/m3]
–	101.37	1027.88

CC(C)CCl [1-chloro-2-methylpropane]
Conditions	mass density [kg/m3]
[1]	871.13

Conditions	Normal boiling temperature [°C]
[1], Ebulliometric method (Recirculating still)	68.90

CC(C)CCl [1-chloro-2-methylpropane] + C1COCCO1
[2]
Conditions	mass density [kg/m3]
x2 = 0.0529	877.81
x2 = 0.1009	883.95
x2 = 0.2001	896.98
x2 = 0.3003	910.79
x2 = 0.3957	924.5
x2 = 0.5022	940.58
x2 = 0.5945	955.19
x2 = 0.7005	972.78
x2 = 0.7926	988.8
x2 = 0.8978	1008.04
x2 = 0.9371	1015.61

CCCCCl [1-chlorobutane]
Conditions	mass density [kg/m3]
[1]	880.69

Conditions	Normal boiling temperature [°C]
[1], Ebulliometric method (Recirculating still)	78.37

CCCCCl [1-chlorobutane] + C1COCCO1
[2]
Conditions	mass density [kg/m3]
x2 = 0.0422	885.61
x2 = 0.0947	891.8
x2 = 0.2055	905.35
x2 = 0.2766	914.45
x2 = 0.4083	932.02
x2 = 0.4852	942.87
x2 = 0.6082	961.08
x2 = 0.6587	968.92
x2 = 0.7939	990.92
x2 = 0.894	1008.37
x2 = 0.9509	1018.71

CC(C)(C)Cl [2-chloro-2-methylpropane]
Conditions	mass density [kg/m3]
[1]	836.45

Conditions	Normal boiling temperature [°C]
[1], Ebulliometric method (Recirculating still)	50.73

CC(C)(C)Cl [2-chloro-2-methylpropane] + C1COCCO1
[2]
Conditions	mass density [kg/m3]
x2 = 0.0563	845.77
x2 = 0.1059	853.89
x2 = 0.2019	870.2
x2 = 0.3134	889.71
x2 = 0.4148	908.22
x2 = 0.5097	926.46
x2 = 0.6071	945.55
x2 = 0.7113	966.4
x2 = 0.8	984.5
x2 = 0.9062	1006.81
x2 = 0.9554	1017.73

CCC(C)Cl (centres undefined) [2-chlorobutane]
Conditions	mass density [kg/m3]
[1]	867.4

Conditions	Normal boiling temperature [°C]
[1], Ebulliometric method (Recirculating still)	68.11

CCC(C)Cl (centres undefined) [2-chlorobutane] + C1COCCO1
[2]
Conditions	mass density [kg/m3]
x2 = 0.0522	874.11
x2 = 0.0886	878.88
x2 = 0.1892	892.48
x2 = 0.2923	907.06
x2 = 0.3647	917.71
x2 = 0.4928	937.42
x2 = 0.6155	957.41
x2 = 0.7149	974.47
x2 = 0.8019	990.07
x2 = 0.9068	1009.72
x2 = 0.941	1016.33
